For the assay, the system named is Kocuria rhizophila NBRC 12708. Particulars: NBRC 12708, 22 h. The procedure: Previously, three theonellapeptolide members capped with a unique acyl group at their N-termini such as methylsulfinylacetyl, methylsulfanylacetyl, and acetyl were isolated by Tsuda et al. from Okinawan marine sponge Theonella sp.. Furthermore, the antibacterial activity of these variants was evaluated against four bacterial and six fungal strains. […] To the best of our knowledge, there is no report on the antibacterial activity of theonellapeptolides with methoxyacetyl group. This encouraged us to investigate the antibacterial activity of 1–6 against the Gram-negative bacterium Escherichia coli JW5503 and the Gram-positive bacteria Bacillus cereus NBRC 15305 and Kocuria rhizophila NBRC 12708.
After incubation for 22 h (30 °C), the obtained optical density was recorded using Tecan infinite® M200 plate reader at 600 nm to determine percent growth inhibition.

Where a SMILES comes first, the peptide text is derived from it. Bridges are numbered along the chain shown (N, C = ends). [ ]: non-standard residue; d: D form. The star is where a group is joined. dNMeaIle = CC[C@H](C)[C@@H](NC)C(=O)O; d(aIle) = CC[C@H](C)[C@@H](N)C(=O)O; NMeI = CC[C@H](C)[C@H](NC)C(=O)O; dNMeL = CN[C@H](CC(C)C)C(=O)O; NMeV = CN[C@H](C(=O)O)C(C)C; Methoxyacetyl = COCC(=O)*; βAla = NCCC(=O)O Bounds are passed on as bounds.

For `CC[C@H](C)[C@H]1C(=O)NCCC(=O)N[C@H]([C@@H](C)CC)C(=O)N(C)[C@@H](C(C)C)C(=O)N[C@@H](C)C(=O)NCCC(=O)N[C@H](CC(C)C)C(=O)N(C)[C@H]([C@@H](C)CC)C(=O)O[C@H](C)[C@H](NC(=O)[C@@H](CC(C)C)N(C)C(=O)[C@@H](NC(=O)COC)C(C)C)C(=O)NCCC(=O)N[C@H](CC(C)C)C(=O)N1C` [Compound 4, theonellapeptolide IId] (Methoxyacetyl-V[dNMeL]T[βAla][dL][NMeI][βAla][d(aIle)][NMeV]A[βAla][dL][dNMeaIle]; ester 3-C), the “MIC, KR” value is given as more than 66 µM.

These data come from publication PMC9697519, “New Theonellapeptolides from Indonesian Marine Sponge Theonella swinhoei as Anti-Austerity Agents” (Marine Drugs, 2022).
